{"source": "patent US12234476B2", "about": "“VCN enhancer compositions and methods of using the same” (bluebird bio, Inc., priority 2016, dated 2025)", "key": {"Human CD34+ cells": {"test_system": "Human CD34+ cells", "assay": "ALDP expression by intracellular staining and flow cytometry", "format": "cell-based", "conditions": "MND-ABCD1 LVV; AMN, ALD patients and healthy donors; day 4 or 5; vs PS", "description": "Human CD34^+ cells from AMN patients (FIG. 26, panels A-D), ALD patients (FIG. 26, panels E-H), and healthy donors (HD; FIG. 26, panels I-L) were transduced with a lentiviral vector (LVV) lacking a WPRE and comprising an MND promoter operably linked to a polynucleotide encoding ABCD1. […] Cultured cells were stained intracellularly for ALDP expression on day 4 or 5 and analyzed by flow cytometry."}, "[1]": {"test_system": "long-term HSCs (CD34+CD38-CD45RA-CD90+CD49f+)", "assay": "GFP lentiviral vector transduction of phenotypic long-term HSCs (flow cytometry)", "format": "cell-based, human", "conditions": "GFP LVV; 4 days of culture", "text": "Human CD34^+ cells were transduced with a GFP lentiviral vector (LVV) and subsequently cultured in cytokine-containing media. After 4 days of culture, these cells were stained for cell surface markers that phenotypically characterize long-term HSCs (CD34^+CD38^−CD45RA^−CD90^+CD49f^+). […] The proportion of transduced phenotypic long-term HSCs increased to >90% in cells transduced in the presence of F108, with or without the supplementation of PGE2. FIG. 22."}, "[2]": {"test_system": "hCD34+ cells transplanted into NSG mice", "assay": "Engraftment and differentiation of transduced hCD34+ cells in NSG mice (flow cytometry)", "format": "in vivo", "text": "HSCs transduced with lentivirus were transplanted into NOD/SCID Gamma (NSG) mice to assess the effect of candidate compounds on viral transduction of human long-term hematopoietic stem cells. […] Mice were housed in a pathogen-free environment per standard IACUC animal care guidelines.\nMeta-analysis of NSG transplants with PGE2-treated lentiviral transduced hCD34+ cells from healthy donors (n=3). Human CD34^+ cells were transplanted into sub-myeloablated female NSG mice and bone marrow (BM) was analyzed at 4 months post-transplant. BM was harvested from both femurs of NSG mice and half of the sample was stained with anti-hCD45 for approximately 30 minutes at 4° C. […] FIG. 1A. […] FIG. 1B.\nThe BM was analyzed for engraftment of hCD34^+ cells. Cells were stained with an antibody cocktail recognizing various cell surface markers (CD45, CD33, CD3, CD19) and analyzed via flow cytometry."}, "hCD34+ cells [3]": {"test_system": "hCD34+ cells", "assay": "Transduction efficiency / % LVV+ (single-cell nested PCR or individual colony qPCR)", "format": "cell-based, human", "conditions": "for transduction efficiency: low-transducing cell lot, individual colony qPCR (Example 11)", "experimental": "(§1) Washed cells were resuspended in 2 mL Stem Cell Growth Medium (SCGM)+cytokines and transferred to a standard 12-well non-adherent tissue culture plate. Cells were maintained for an additional 6 days in a standard humidified tissue culture incubator (5% CO2) and then subjected to Vector Copy Number (VCN) analysis or single-cell nested PCR to determine transduction efficiency. Both VCN and the single-cell nested PCR assay were performed with qPCR using primers and probes specific to both the vector and an endogenous control gene. VCN was determined by dividing the amount of vector signal by the amount of the endogenous control gene. For the single-cell nested PCR assay, wells that contained a cell positive for the endogenous control gene and wells that contained a marked cell positive for both the vector and the endogenous control gene were enumerated, and the proportion of marked cells, or transduction efficiency, was calculated.\nAfter a 7 day liquid culture, cells were collected and single-cell sorted into a 96-well plate. Cells were lysed and subjected to nested PCR to determine presence of LVV in a single cell. Percentage of cells containing both LVV and an endogenous control gene was determined from number of cells containing the endogenous control gene. […] FIG. 5B.\n% LVV+: Single cells were isolated by FACS and deposited in 96-well plates containing lysis buffer. Following lysis, the viral-specific sequence from a lentiviral vector encoding a β-globin variant was amplified by PCR along with a control genomic sequence not present in the vector. The PCR products from each single cell were then analyzed by qPCR for presence of genomic sequence, indicating a successfully captured cell. […] Fraction of vector positive cells was then calculated across the entire set of sampled cells. The % LVV+ of the β0/β0 hCD34+ cells was about 77%. FIG. 18, right panel."}, "[4]": {"test_system": "hCD34+ cells transplanted into NSG mice", "assay": "In vivo VCN of engrafted human cells in bone marrow of NSG mice", "text": "HSCs transduced with lentivirus were transplanted into NOD/SCID Gamma (NSG) mice to assess the effect of candidate compounds on viral transduction of human long-term hematopoietic stem cells. Transduced cells were washed and resuspended in phosphate-buffered saline (PBS) and transplanted into the tail vein of sub-myeloablated adult NSG mice, with minimal residual toxicity. Mice were housed in a pathogen-free environment per standard IACUC animal care guidelines. At 4 months post-transplant bone marrow (BM) was harvested from both femurs and analyzed for both VCN and engraftment of human cells by staining with an anti-hCD45 antibody (BD #561864) followed by flow cytometry analysis.\nMeta-analysis of NSG transplants with PGE2-treated lentiviral transduced hCD34+ cells from healthy donors (n=3). Human CD34^+ cells were transplanted into sub-myeloablated female NSG mice and bone marrow (BM) was analyzed at 4 months post-transplant. BM was harvested from both femurs of NSG mice and half of the sample was stained with anti-hCD45 for approximately 30 minutes at 4° C. Following incubation, samples were washed and analyzed for human CD45^+ cells via flow analysis using an anti-hCD45 antibody (BD #561864). […] FIG. 1A. The mean VCN of engrafted PGE2-treated hCD34^+ cells was about two-fold higher than the mean VCN of control cells at 4 months post-transplant. FIG. 1B.\nA low-transducing cell lot of hCD34^+ cells (VCN of 0.3 under standard conditions) was transduced with lentiviral vector in the presence of protamine sulfate, PGE2, F108 (200 μg/mL or 1000 μg/mL), or the combination of PGE2 and F108 for 24 hours. Following transduction, cells were washed and immediately injected into busulfan-treated NSG mice.\nTwo months post-transplant, 5 mice/group were sacrificed and BM was harvested and analyzed to evaluate in vivo VCN. The in vivo VCN of engrafted cells transduced in the presence of protamine sulfate was very similar to the graft VCN (˜0.3). in vivo VCN increased approximately 2-fold in PGE2-treated cells. […] FIG. 10C."}, "hCD34+ cells [5]": {"test_system": "hCD34+ cells", "assay": "Colony formation in MethoCult / methylcellulose", "format": "cell-based, human", "experimental": "(§2) Washed cells were resuspended in 200 μL SCGM and then transferred to 3 mL aliquots of cytokine-supplemented methylcellulose (for example, Methocult M4434 Classic). 1.1 mL was then transferred to parallel 35-mm tissue culture dishes using a blunt 16-gauge needle. Dishes were maintained in a standard humidified tissue culture incubator for 12-16 days and colonies were scored for size, morphology, and cellular composition. Individual colonies were then picked for subsequent VCN analysis or the contents of an entire 35-mm dish were pooled and then subject to VCN analysis.\nColonies in MethoCult were enumerated using STEMvision (Stemcell Technologies). […] FIG. 3."}, "hCD34+ cells [6]": {"test_system": "hCD34+ cells", "assay": "Vector copy number (VCN) analysis by qPCR of lentivirus-transduced hCD34+ cells (pooled or individual MethoCult colonies, liquid culture)", "format": "cell-based, human", "conditions": "for VCN with increasing concentrations of PGE2: pooled colonies", "experimental": "as §1, §2"}}}
{"compound": "CCCCC[C@H](O)/C=C/[C@H]1[C@H](O)CC(=O)[C@@H]1C/C=C\\CCCC(=O)O", "note": "[PGE2, prostaglandin E2]", "values": [{"measurement": "number of cells expressing ALDP", "setting": "Human CD34+ cells", "result": "increased the number of cells expressing ALDP"}, {"measurement": "proportion of phenotypic long-term HSCs expressing GFP", "setting": "[1]", "result": 45, "unit": "%"}, {"measurement": "effect on hCD34+ engraftment", "setting": "[2]; 2 and 4 months post-transplant", "result": "no statistically significant effect"}, {"measurement": "proportion of myeloid (CD33+) or lymphoid (CD3+ or CD19+) cells", "setting": "[2]; 2 and 4 months post-transplant", "result": "no significant difference"}, {"measurement": "percentage of hCD45+ cells in mouse BM (engraftment)", "setting": "[2]; 4 months post-transplant, PGE2-treated vs control-treated", "result": "No statistically significant difference"}, {"measurement": "transduction efficiency", "setting": "hCD34+ cells [3]", "result": "~40", "unit": "%"}, {"measurement": "mean VCN of engrafted cells vs control cells", "setting": "[4]; 4 months post-transplant, healthy donors n=3", "result": "about two-fold"}, {"measurement": "increase of in vivo VCN over protamine sulfate", "setting": "[4]; four months post-transplant", "result": "approximately 1.6 fold"}, {"measurement": "increase of in vivo VCN over protamine sulfate", "setting": "[4]; two months post-transplant", "result": "approximately 2 fold"}, {"measurement": "colony formation ability of transduced cells", "setting": "hCD34+ cells [5]; 24 hour transduction, 14 day MethoCult (Example 4)", "result": "did not alter the colony formation ability"}, {"measurement": "fold increase in mean VCN compared to protamine sulfate", "setting": "hCD34+ cells [6]; 24 hour transduction, 14 day MethoCult pooled colonies (Example 6)", "result": 2, "unit": "fold"}, {"measurement": "VCN at D7 in cytokine cultured cells and D14 pooled methylcellulose colonies", "setting": "hCD34+ cells [6]; MND-ABCD1 LVV, AMN, ALD patients and healthy donors", "result": "increased VCN"}, {"measurement": "VCN with increasing concentrations of PGE2", "setting": "hCD34+ cells [6]; in the presence of F108, PGE2 increased at least 10-fold", "result": "does not result in a dose-dependent increase in VCN"}, {"measurement": "VCN with increasing concentrations of PGE2", "setting": "hCD34+ cells [6]; in the presence of protamine sulfate", "result": "dose-dependent increase in VCN"}, {"measurement": "increase of mean VCN of graft vs protamine sulfate", "setting": "hCD34+ cells [6]; low-transducing cell lot, 24 hours (Example 11)", "result": "approximately 3 fold"}]}
{"compound": "protamine sulfate", "values": [{"measurement": "proportion of phenotypic long-term HSCs expressing GFP", "setting": "[1]", "result": "approximately 30%"}, {"measurement": "% LVV+ colonies", "setting": "hCD34+ cells [3]; IL2Rγ LVV from PrCL1 or PrCL2", "result": "20-30%"}, {"measurement": "% LVV+ colonies", "setting": "hCD34+ cells [3]; IL2Rγ LVV, transiently prepared", "result": "50-60%"}, {"measurement": "transduction efficiency", "setting": "hCD34+ cells [3]", "result": "~20", "unit": "%"}, {"measurement": "in vivo VCN of engrafted cells", "setting": "[4]; four months post-transplant", "result": "~0.3"}, {"measurement": "in vivo VCN of engrafted cells", "setting": "[4]; two months post-transplant", "result": "~0.3"}, {"measurement": "ability of hematopoietic progenitors to form colonies (erythroid or myeloid)", "setting": "hCD34+ cells [5]; 8 μg/mL PS, 10 or 1000 μg/mL F108, 1000 μg/mL F108 with 8 μg/mL PS", "result": "Neither PS nor F108 significantly affected"}, {"measurement": "colony formation", "setting": "hCD34+ cells [5]; IL2Rγ LVV (Example 26)", "result": "did not significantly impact colony formation"}, {"measurement": "VCN of pooled colonies", "setting": "hCD34+ cells [6]; EF1α-IL2Rγ LVV, MOI 10 or 30", "result": "below 1.5"}, {"measurement": "VCN of pooled colonies", "setting": "hCD34+ cells [6]; EF1α-TPP1 or MND-TPP1 LVV, MOI 5 or 15", "result": "below 1.5"}, {"measurement": "distribution of individual colony VCNs", "setting": "hCD34+ cells [6]; F108 and PGE2 at MOI 10, protamine sulfate at MOI 25", "result": "0-6"}]}
